Assay results taken from patent US20250154169A1, “COMPOUNDS AND METHODS FOR MODULATING SPLICING” (REMIX THERAPEUTICS INC., priority 2021, published 2025).
Where two headings read alike, the source gives them in different places.

Key:
Format in all cases: cell-based, human
MYB mRNA = test: Splicing RT-qPCR assay, MYB canonical (CJ) and alternative (AJ) junction mRNA; conditions: for AC50: read-out: MYB AJ (AC50, increase in alternative junction mRNA)
Procedure, shortened: (§1)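 One-step RT-qPCR on cell lysates, CJ and AJ isoforms quantified; housekeeping normalization GAPDH/GUSB (K562) or PPIA (A673). Cells: A673 in DMEM/10% FBS or K562 in IMDM/10% FBS. Compounds 11-pt 3-fold, top 10 uM, 24 h, 37 °C, 5% CO2.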

Target C mRNA = test: Splicing RT-qPCR gene panel, Target C canonical junction (CJ) mRNA; conditions: Tables 4A/4B, read-out: Target C (IC50, decrease in CJ mRNA, gene panel)
Protocol: (§2) Compounds described herein were used to modulate RNA transcript abundance in cells. The expression of a target mRNA was measured by detecting the formation of an exon-exon junction in the canonical transcript (CJ). A compound mediated exon-inclusion event was detected by observing an increase in formation of a new junction with an alternative exon (AJ). Real-time qPCR assays were used to detect these splicing switches and interrogate the potency of various compounds towards different target genes. A high-throughput real time quantitative PCR (RT-qPCR) assay was developed to measure these two isoforms of the mRNA (CJ and AJ) for exemplary genes, such as HTT, SMN2, and MYB, together with a control housekeeping gene, GAPDH or GUSB or PPIA, used for normalization. Briefly, the A673 or K562 cell line was treated with various compounds described herein (e.g., compounds of Formula (I)). After treatment, the levels of the HTT, MYB, or SMN2 mRNA targets were determined from each sample of cell lysate by cDNA synthesis followed by qPCR.
(§3) The A673 cell line was cultured in DMEM with 10% FBS. Cells were diluted with full growth media and plated in a 96-well plate (15,000 cells in 100 ul media per well). The plate was incubated at 37° C. with 5% CO2 for 24 hours to allow cells to adhere. An 11-point 3-fold serial dilution of the compounds was made in DMSO then diluted in media in an intermediate plate. Compounds were transferred from the intermediate plate to the cell plate with the top dose at a final concentration of 10 uM in the well. Final DMSO concentration was kept at or below 0.25%. The cell plate was returned to the incubator at 37° C. with 5% CO2 for an additional 24 hours.
(§4) The K562 cell line was cultured in IMDM with 10% FBS. For K562, cells were diluted with full growth media and plated in either a 96-well plate (50,000 cells in 50 uL media per well) or a 384-well plate (8,000-40,000 cells in 45 uL media per well). An 11-point 3-fold serial dilution of the compounds were made in DMSO then diluted in media in an intermediate plate. Compound was transferred from the intermediate plate to the cell plate with the top dose at a final concentration of 10 uM in the well. Final DMSO concentration was kept at or below 0.25%. Final volume was 100 uL for 96-well plate and 50 uL for 384-well plate. The cell plate was then placed in an incubator at 37° C. with 5% CO2 for 24 hours.
(§5) The cells were then gently washed with 50 uL-100 uL cold PBS before proceeding to addition of lysis buffer. 30 uL-50 uL of room temperature lysis buffer with DNAse I (and optionally RNAsin) was added to each well. Cells were shaken/mixed thoroughly at room temperature for 5-10 minutes for lysis to take place and then 3 uL-5 uL of room temperature stop solution was added and wells were shaken/mixed again. After 2-5 minutes, the cell lysate plate was transferred to ice for RT-qPCR reaction setup. The lysates could also be frozen at −80° C. for later use.
(§6) In some cases, a direct lysis buffer was used. An appropriate volume of 3× lysis buffer (10 mM Tris, 150 mM NaCl, 1.5%-2.5% Igepal and 0.1-1 U/uL RNAsin, pH 7.4) was directly added to either K562 or A673 cells in media and mixed by pipetting 3 times. The plates were then incubated at room temperature with shaking/rocking for 20-50 minutes to allow for lysis to take place. After this time, the cell lysate plate was transferred to ice to set up for the RT-qPCR reactions. The lysates could also be frozen at −80° C. for later use.
(§7) To set up 10 uL RT-qPCR reactions, cell lysates were transferred to 384-well qPCR plates containing the master mix according to the table below. The plates were sealed, gently vortexed, and spun down before the run. The volumes were adjusted accordingly in some instances where the reaction was carried in 20 μL. The table below summarizes the components of the RT-qPCR reactions:
(§8) The RT-qPCR reaction was performed using a QuantStudio (ThermoFisher) under the following fast cycling conditions. […]

HTT mRNA [1] = test: Splicing RT-qPCR gene panel, HTT canonical junction (CJ) mRNA; conditions: Tables 4A/4B, read-out: HTT (IC50, decrease in CJ mRNA, gene panel)
Protocol: as §2, §3, §4, §5, §6, §7, §8

HTT mRNA [2] = test: Splicing RT-qPCR assay, HTT canonical (CJ) and alternative (AJ) junction mRNA; conditions: Homo sapiens, A673 or K562 cells, 24 hours compound treatment; for IC50: 24 h, read-out: HTT CJ (IC50, decrease in canonical junction mRNA); for AC50: read-out: HTT AJ (AC50, increase in alternative junction mRNA)
Procedure, shortened: as §1

SMN2 mRNA = test: Splicing RT-qPCR gene panel, SMN2 canonical junction (CJ) mRNA; conditions: Tables 4A/4B, read-out: SMN2 (IC50, decrease in CJ mRNA, gene panel)
Protocol: as §2, §3, §4, §5, §6, §7, §8

[3] = Homo sapiens, 24 h, A673 or K562 cells, 24 hours compound treatment, RT-qPCR
[4] = Homo sapiens, 24 h, A673 or K562 cells, 24 hours compound treatment, RT-qPCR, read-out: MYB CJ (IC50, decrease in canonical junction mRNA)
[5] = Homo sapiens, Tables 4A/4B, canonical junction qPCR panel, read-out: MYB (IC50, decrease in CJ mRNA, gene panel)

Row | IC50 (MYB mRNA; [4]) [µM] | IC50 (MYB mRNA; [5]) [µM] | IC50 (Target C mRNA; Homo sapiens) [µM] | IC50 (HTT mRNA [1]; Homo sapiens) [µM] | IC50 (HTT mRNA [2]) [µM] | IC50 (SMN2 mRNA; Homo sapiens) [µM] | IC50 (MYB mRNA; Tables 4A/4B, canonical junction qPCR panel, read-out: MYB (IC50, decrease in CJ mRNA, gene panel)) [µM] | IC50 (Target C mRNA) [µM] | IC50 (HTT mRNA [1]) [µM] | IC50 (SMN2 mRNA) [µM] | Compound | AC50 (MYB mRNA; [3]) [µM] | AC50 (HTT mRNA [2]) [µM]
1 | > 10 | > 10 | > 10 | > 10 | > 10 | > 10 | – | – | – | – | Cn1cc2c(F)cc(NC(=O)c3ccc(N4CCNCC4)c4cn(C)nc34)cc2n1 [Compound 231] | > 10 | > 10
2 | < 0.1 | < 0.1 | 1 to 10 | 0.1 to 1 | 0.1 to 1 | < 0.1 | – | – | – | – | Cc1cn2cc(NC(=O)c3ccc(N4CCN[C@@H](C)C4)c4cn(C)nc34)cc(F)c2n1 (single isomer, unassigned) [Compound 352] | < 0.1 | 0.1 to 1
3 | < 0.1 | 0.1 to 1 | 1 to 10 | 1 to 10 | 0.1 to 1 | < 0.1 | – | – | – | – | Cc1cn2cc(NC(=O)c3ccc(N4CCNC[C@H]4C)c4cn(C)nc34)cc(F)c2n1 [Compound 447, N-{8-fluoro-2-methylimidazo[1,2-a]pyridin-6-yl}-2-methyl-4-[(2R)-2-methylpiperazin-1-yl]indazole-7-carboxamide] | < 0.1 | 0.1 to 1
4 | – | < 0.1 | 0.1 to 1 | 0.1 to 1 | – | < 0.1 | – | – | – | – | CCNC1CCN(c2ccc(C(=O)Nc3cc(F)c4nc(C)cn4c3)c3nn(C)cc23)CC1 [Compound 252] | – | –
5 | – | < 0.1 | 1 to 10 | 1 to 10 | – | < 0.1 | – | – | – | – | CCn1cc2c(N3CCNCC3)ccc(C(=O)Nc3cc(Cl)c4nc(C)cn4c3)c2n1 [Compound 284] | – | –
6 | – | < 0.1 | < 0.1 | < 0.1 | – | < 0.1 | – | – | – | – | CCNC1CCN(c2cc(F)c(C(=O)Nc3cn4cc(C)nc4c(F)c3OC)c3nn(C)cc23)CC1 [Compound 471] | – | –
7 | – | 0.1 to 1 | > 10 | > 10 | – | < 0.1 | – | – | – | – | Cc1cn2cc(NC(=O)c3ccc(N4CCC(NC(C)(C)C)C4)c4cc(C)oc34)cc(F)c2n1 (stereo not drawn) [Compound 203] | – | –
8 | – | < 0.1 | 1 to 10 | < 0.1 | – | < 0.1 | – | – | – | – | C=C(C)n1cc2c(N3CCNCC3)ccc(C(=O)Nc3cc(F)c4nc(C)cn4c3)c2n1 [Compound 440, N-{8-fluoro-2-methylimidazo[1,2-a]pyridin-6-yl}-4-(piperazin-1-yl)-2-(prop-1-en-2-yl) indazole-7-carboxamide] | – | –
9 | – | < 0.1 | < 0.1 | < 0.1 | – | < 0.1 | – | – | – | – | Cc1cn2cc(NC(=O)c3c(F)cc(N4CCNCC4)c4cn(C)nc34)cc(F)c2n1 [Compound 361, 6-fluoro-N-{8-fluoro-2-methylimidazo[1,2-a]pyridin-6-yl}-2-methyl-4-(piperazin-1-yl) indazole-7-carboxamide] | – | –
10 | – | 0.1 to 1 | 1 to 10 | 1 to 10 | – | < 0.1 | – | – | – | – | Cc1cc2c(N3CCNCC3)ccc(C(=O)Nc3cc(F)c4nc(C)oc4c3)c2o1 [Compound 218] | – | –
11 | – | < 0.1 | 0.1 to 1 | < 0.1 | – | < 0.1 | – | – | – | – | Cc1cn2cc(NC(=O)c3ccc(N4CCN5CCCC5C4)c4cn(C)nc34)cc(F)c2n1 (stereo not drawn) [Compound 250] | – | –
12 | – | < 0.1 | 0.1 to 1 | < 0.1 | – | < 0.1 | – | – | – | – | Cc1cn2cc(NC(=O)c3ccc(N4CCC5(CC4)CCN5C)c4cn(C)nc34)cc(F)c2n1 [Compound 422, N-{8-fluoro-2-methylimidazo[1,2-a]pyridin-6-yl}-2-methyl-4-{1-methyl-1,7-diazaspiro[3.5]nonan-7-yl}indazole-7-carboxamide; bis(trifluoroacetic acid)] | – | –
13 | – | < 0.1 | 1 to 10 | 0.1 to 1 | – | < 0.1 | – | – | – | – | Cc1cn2cc(NC(=O)c3ccc(N4CCN(C)CC4)c4cn(C)nc34)cc(F)c2n1 [Compound 207] | – | –
14 | – | – | – | – | – | – | < 0.1 | 0.1 to 1 | 0.1 to 1 | < 0.1 | Cc1cn2cc(NC(=O)c3ccc(N4CCNCC4)c4cn(C)nc34)cc(Cl)c2n1 [Compound 285] | – | –
15 | – | < 0.1 | 1 to 10 | 1 to 10 | – | < 0.1 | – | – | – | – | Cc1nc2c(F)cc(NC(=O)c3ccc(N4CCNCC4)c4cn(C)nc34)cc2o1 [Compound 234] | – | –
16 | – | 0.1 to 1 | 1 to 10 | 1 to 10 | – | < 0.1 | – | – | – | – | Cc1cn2cc(NC(=O)c3ccc(C4C[C@@H](C)N[C@@H](C)C4)c4cn(C)nc34)cc(F)c2n1 (stereo partly drawn) [Compound 211] | – | –
17 | – | < 0.1 | 0.1 to 1 | < 0.1 | – | < 0.1 | – | – | – | – | C/C=C/n1cc2c(N3CCNCC3)ccc(C(=O)Nc3cc(F)c4nc(C)cn4c3)c2n1 [Compound 445, N-{8-fluoro-2-methylimidazo[1,2-a]pyridin-6-yl}-4-(piperazin-1-yl)-2-[(1E)-prop-1-en-1-yl]indazole-7-carboxamide] | – | –
18 | – | < 0.1 | 1 to 10 | 0.1 to 1 | – | < 0.1 | – | – | – | – | Cc1cn2cc(NC(=O)c3ccc(N4CCNC(C)C4)c4cn(C)nc34)cc(Cl)c2n1 (stereo not drawn) [Compound 277] | – | –
19 | – | < 0.1 | > 10 | 1 to 10 | – | < 0.1 | – | – | – | – | Cc1cn2cc(NC(=O)c3ccc(N4CC[C@H](NC5(CF)CC5)C4)c4cn(C)nc34)cc(F)c2n1 (single isomer, unassigned) [Compound 449] | – | –
20 | – | < 0.1 | 1 to 10 | 0.1 to 1 | – | < 0.1 | – | – | – | – | Cc1cn2cc(NC(=O)c3ccc(N4CCC(N(C)C)CC4)c4cn(C)nc34)cc(F)c2n1 [Compound 251] | – | –
21 | – | 0.1 to 1 | 1 to 10 | 0.1 to 1 | – | < 0.1 | – | – | – | – | Cc1cn2cc(NC(=O)c3ccc(N4CCNC5(CC5)C4)c4cn(C)nc34)cc(F)c2n1 [Compound 241] | – | –
